Tests used:
[1] = molecular target: T1, 5-HT1A receptor (Rattus norvegicus, UniProt P19327); assay: radioligand displacement of [3H]-8-OH-DPAT, dose-response; format: binding
T1 construct: gene Htr1a; rat cerebral cortex membranes
T1 sequence (P19327 1-422): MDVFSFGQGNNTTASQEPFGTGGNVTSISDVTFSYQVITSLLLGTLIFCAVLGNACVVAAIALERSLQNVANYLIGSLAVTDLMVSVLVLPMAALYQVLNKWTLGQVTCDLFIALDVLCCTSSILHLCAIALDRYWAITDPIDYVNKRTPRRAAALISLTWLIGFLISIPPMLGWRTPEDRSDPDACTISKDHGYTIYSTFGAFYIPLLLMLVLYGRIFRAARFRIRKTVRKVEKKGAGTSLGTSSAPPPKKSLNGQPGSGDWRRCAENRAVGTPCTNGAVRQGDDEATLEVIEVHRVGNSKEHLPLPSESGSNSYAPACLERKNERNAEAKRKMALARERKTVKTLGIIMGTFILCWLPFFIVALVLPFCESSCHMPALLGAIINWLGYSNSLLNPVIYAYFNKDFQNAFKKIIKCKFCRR

[2] = molecular target: T1, 5-HT1A receptor; assay: radioligand displacement of [3H]-8-OH-DPAT, single dose […]

SMILES | Ki [1] | inhibition at 1 µM [2]
O=C(CCN1CCN(c2ccccn2)CC1)c1cc2ccccc2s1 [7e, 1-(benzo[b]thiophen-2-yl)-3-(4-(pyridin-2-yl)piperazin-1-yl)propan-1-one] | 2.3 µM | 
COc1ccccc1N1CCN(CCC(=O)c2cc3ccccc3s2)CC1 [7d, 3-[4-(2-Methoxyphenyl)piperazin-1-yl]-1-(benzo[b]thiophen-2-yl)-1-propanone] |  | 52 ± 7%

Reference: PMC6268179, “Synthesis, Docking Studies and Biological Evaluation of Benzo[b]thiophen-2-yl-3-(4-arylpiperazin-1-yl)-propan-1-one Derivatives on 5-HT1A Serotonin Receptors” (Molecules, 2012)
